Results from US12371428B2 (Exelixis, Inc., priority 2019, dated 2025).
Like-named read-outs stand apart in the source and are kept apart here.

Experiments:
[1] = biological target: Human MER (residues 528-999) (Homo sapiens (Human), UniProt Q12866); test: Human Mer kinase assay, HTRF KinEase (Example C-2); format: biochemical
In short: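 IC50 values from 10 concentrations via 4-parameter logistic fit of […], with DMSO as 100% and 1 μM reference compound as 0% activity. Reaction: MER kinase domain 528-999, 1 ng/well, 40 μM ATP (Km), biotin peptide, 5 mM MgCl2, 1 mM DTT, 3% DMSO, room temperature 60 min; HTRF streptavidin-XL665/Eu-antibody detection.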

[2] = biological target: KDR (phospho-KDR, VEGF165-stimulated HUVEC cells) (Homo sapiens (Human), UniProt P35968); test: KDR autophosphorylation ELISA in HUVEC cells (Example G); format: cell-based; conditions: cellular activity; KDR autophosphorylation ELISA in HUVEC cells
Sequence of KDR (phospho-KDR, VEGF165-stimulated HUVEC cells) (P35968 20-1356): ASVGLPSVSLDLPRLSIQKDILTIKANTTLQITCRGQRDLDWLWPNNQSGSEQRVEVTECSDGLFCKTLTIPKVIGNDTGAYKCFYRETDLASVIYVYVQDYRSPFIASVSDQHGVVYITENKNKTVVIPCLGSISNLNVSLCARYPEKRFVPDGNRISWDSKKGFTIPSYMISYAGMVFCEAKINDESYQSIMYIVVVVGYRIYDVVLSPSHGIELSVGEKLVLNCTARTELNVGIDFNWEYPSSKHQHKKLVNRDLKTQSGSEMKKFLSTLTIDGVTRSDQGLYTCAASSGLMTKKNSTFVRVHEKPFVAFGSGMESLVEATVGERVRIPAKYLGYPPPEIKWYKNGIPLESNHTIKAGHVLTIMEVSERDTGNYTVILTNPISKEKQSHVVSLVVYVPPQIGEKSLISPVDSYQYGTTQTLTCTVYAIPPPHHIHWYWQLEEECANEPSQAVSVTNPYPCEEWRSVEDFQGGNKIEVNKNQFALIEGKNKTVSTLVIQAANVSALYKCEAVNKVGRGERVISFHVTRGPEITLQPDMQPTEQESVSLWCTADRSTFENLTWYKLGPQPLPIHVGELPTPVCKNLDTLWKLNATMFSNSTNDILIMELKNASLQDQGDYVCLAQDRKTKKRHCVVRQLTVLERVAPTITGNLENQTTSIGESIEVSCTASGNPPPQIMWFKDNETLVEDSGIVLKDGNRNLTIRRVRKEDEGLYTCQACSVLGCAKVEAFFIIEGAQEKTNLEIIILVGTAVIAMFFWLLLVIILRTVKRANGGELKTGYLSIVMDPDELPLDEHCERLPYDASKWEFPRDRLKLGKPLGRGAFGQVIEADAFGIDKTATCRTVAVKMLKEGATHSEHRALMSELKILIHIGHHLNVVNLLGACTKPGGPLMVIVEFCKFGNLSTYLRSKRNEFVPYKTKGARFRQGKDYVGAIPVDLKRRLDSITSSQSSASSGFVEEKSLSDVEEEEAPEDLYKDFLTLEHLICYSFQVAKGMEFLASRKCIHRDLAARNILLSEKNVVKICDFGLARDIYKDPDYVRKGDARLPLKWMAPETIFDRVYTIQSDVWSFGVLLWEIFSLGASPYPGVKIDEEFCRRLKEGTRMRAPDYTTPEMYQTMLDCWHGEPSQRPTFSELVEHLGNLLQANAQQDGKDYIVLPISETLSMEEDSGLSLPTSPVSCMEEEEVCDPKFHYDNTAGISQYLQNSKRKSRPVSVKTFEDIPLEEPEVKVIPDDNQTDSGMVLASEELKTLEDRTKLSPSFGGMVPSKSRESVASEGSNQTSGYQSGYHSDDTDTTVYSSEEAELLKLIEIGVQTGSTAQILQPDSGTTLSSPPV
In short: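 Inhibition of VEGF165-driven KDR autophosphorylation is measured in primary human umbilical vein endothelial cells after 24 h serum deprivation. Compound preincubation lasts 1 h before a 5-minute challenge with 100 ng/mL ligand, and phosphorylated receptor is then measured by ELISA in the lysates.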

[3] = biological target: Met (phospho-Met, HGF-stimulated PC-3 prostate cancer cells) (Homo sapiens (Human), UniProt P08581); test: Met autophosphorylation ELISA in PC-3 cells (Example F); format: cell-based; conditions: cellular activity; Met autophosphorylation ELISA in PC-3 cells; read-out: c-Met IC50
Sequence of Met (phospho-Met, HGF-stimulated PC-3 prostate cancer cells) (P08581 25-1390): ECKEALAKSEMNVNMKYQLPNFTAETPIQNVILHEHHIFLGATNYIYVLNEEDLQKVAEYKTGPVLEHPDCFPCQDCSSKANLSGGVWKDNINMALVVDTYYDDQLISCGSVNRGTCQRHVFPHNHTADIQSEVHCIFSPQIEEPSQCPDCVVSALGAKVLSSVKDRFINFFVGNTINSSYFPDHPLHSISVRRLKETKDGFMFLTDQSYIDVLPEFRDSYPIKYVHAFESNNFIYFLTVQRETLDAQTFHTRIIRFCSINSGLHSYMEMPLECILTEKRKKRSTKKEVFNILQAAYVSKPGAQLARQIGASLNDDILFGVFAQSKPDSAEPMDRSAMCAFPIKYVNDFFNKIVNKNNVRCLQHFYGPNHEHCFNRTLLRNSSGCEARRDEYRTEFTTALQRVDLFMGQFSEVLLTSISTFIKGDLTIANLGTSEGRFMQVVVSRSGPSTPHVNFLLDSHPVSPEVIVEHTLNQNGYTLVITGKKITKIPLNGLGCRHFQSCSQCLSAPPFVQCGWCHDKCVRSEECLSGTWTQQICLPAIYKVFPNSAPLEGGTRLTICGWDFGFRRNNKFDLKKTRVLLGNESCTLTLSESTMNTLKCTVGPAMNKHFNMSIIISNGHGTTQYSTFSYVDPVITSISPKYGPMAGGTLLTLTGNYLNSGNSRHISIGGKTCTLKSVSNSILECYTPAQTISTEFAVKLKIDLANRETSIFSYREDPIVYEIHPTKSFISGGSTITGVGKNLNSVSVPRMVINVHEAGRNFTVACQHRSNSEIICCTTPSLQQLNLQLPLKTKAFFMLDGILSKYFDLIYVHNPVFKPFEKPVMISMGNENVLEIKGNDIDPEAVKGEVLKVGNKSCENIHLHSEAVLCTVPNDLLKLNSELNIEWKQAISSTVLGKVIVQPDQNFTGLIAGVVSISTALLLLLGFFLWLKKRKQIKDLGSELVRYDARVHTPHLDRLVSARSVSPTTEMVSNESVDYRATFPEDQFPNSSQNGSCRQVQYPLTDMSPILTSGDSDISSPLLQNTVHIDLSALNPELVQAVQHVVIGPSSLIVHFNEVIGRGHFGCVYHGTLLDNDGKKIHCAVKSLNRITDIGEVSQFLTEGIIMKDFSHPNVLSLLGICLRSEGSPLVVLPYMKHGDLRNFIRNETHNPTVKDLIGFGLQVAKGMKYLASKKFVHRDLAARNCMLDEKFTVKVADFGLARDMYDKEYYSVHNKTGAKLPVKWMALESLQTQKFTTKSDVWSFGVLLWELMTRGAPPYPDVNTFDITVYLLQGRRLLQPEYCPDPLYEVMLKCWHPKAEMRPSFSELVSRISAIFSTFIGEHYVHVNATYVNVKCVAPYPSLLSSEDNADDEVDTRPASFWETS
In short: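 Sandwich ELISA for phospho-Met (panTyr) in PC-3 lysates. Cells starved 3 h serum-free, compound 1 h (8-pt curve, 0.3% DMSO), HGF 100 ng/mL 10 min. 100% = HGF + DMSO; 0% = HGF + reference inhibitor. IC50 by 4-parameter fit.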

[4] = biological target: Human MET (residues 956-1390) (Homo sapiens (Human), UniProt P08581); test: Human Met kinase assay, HTRF KinEase (Example D-2); format: biochemical; conditions: read-out: c-Met IC50
Sequence of Human MET (residues 956-1390) (P08581 956-1390): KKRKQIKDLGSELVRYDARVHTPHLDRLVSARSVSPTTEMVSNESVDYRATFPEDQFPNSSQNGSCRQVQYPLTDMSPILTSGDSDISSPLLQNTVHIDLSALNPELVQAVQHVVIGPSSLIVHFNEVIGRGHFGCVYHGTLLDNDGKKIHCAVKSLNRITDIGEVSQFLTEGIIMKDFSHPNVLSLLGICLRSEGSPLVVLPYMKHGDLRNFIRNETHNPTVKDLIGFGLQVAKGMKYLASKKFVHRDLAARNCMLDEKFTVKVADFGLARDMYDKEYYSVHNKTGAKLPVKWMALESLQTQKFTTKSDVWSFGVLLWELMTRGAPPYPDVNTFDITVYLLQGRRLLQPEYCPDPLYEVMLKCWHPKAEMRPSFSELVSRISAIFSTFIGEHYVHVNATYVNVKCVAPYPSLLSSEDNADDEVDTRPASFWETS
In short: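 IC50 values come from a 4-parameter logistic fit of the […] fluorescence ratio, set between DMSO (100%) and reference compound at 1 μM (0%). Reactions held MET 956-1390 at 0.1 ng/well, ATP at Km, biotinylated peptide, 5 mM MgCl2, 1 mM MnCl2, 1 mM DTT and 3% DMSO, and ran 40 min at room temperature before streptavidin-XL665/Eu-antibody detection.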

[5] = protocol of Example C-2 (other compounds)
[6] = protocol of Example D-2 (other compounds)

Sequence of Human MER (residues 528-999) (Q12866 528-999): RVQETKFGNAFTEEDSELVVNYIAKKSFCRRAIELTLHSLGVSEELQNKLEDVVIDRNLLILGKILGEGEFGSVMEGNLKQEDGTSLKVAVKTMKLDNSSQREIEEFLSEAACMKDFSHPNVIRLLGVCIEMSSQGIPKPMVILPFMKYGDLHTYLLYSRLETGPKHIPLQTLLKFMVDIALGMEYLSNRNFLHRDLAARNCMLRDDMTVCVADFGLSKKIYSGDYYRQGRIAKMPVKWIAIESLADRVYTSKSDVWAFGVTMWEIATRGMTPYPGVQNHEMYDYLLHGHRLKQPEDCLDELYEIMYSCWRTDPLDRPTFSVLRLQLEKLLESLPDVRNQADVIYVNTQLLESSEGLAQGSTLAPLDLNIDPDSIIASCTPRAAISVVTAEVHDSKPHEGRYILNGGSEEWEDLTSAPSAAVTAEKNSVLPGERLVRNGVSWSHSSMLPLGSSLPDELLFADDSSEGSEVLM

IC50 ([1]; protocol of Example C-2)	IC50 [2]	IC50 [3]	IC50 ([4]; protocol of Example D-2)	IC50 [1, 5]	IC50 [4, 6]	SMILES
< 100 nM	< 100 nM	< 100 nM	< 100 nM			COc1cnc2c(Oc3ccc(NC(=O)c4nn(C)c(C)c(-c5ccc(F)cc5C)c4=O)cc3F)ccnc2c1 [Compound 513, N-[3-fluoro-4-[(7-methoxy-1,5-naphthyridin-4-yl)oxy]phenyl]-5-(4-fluoro-2-methylphenyl)-1,6-dimethyl-4-oxopyridazine-3-carboxamide]
	< 100 nM	< 100 nM		< 100 nM	< 100 nM	COCCOc1ccc2nccc(Oc3ccc(NC(=O)c4c(C)nc(C)c(-c5ccc(F)cc5)c4O)cc3F)c2n1 [Compound 349, N-[3-fluoro-4-[[6-(2-methoxyethoxy)-1,5-naphthyridin-4-yl]oxy]phenyl]-5-(4-fluorophenyl)-4-hydroxy-2,6-dimethylpyridine-3-carboxamide]
< 100 nM	< 100 nM	< 100 nM	100 to 300 nM			COc1nc2c(Oc3ccc(NC(=O)c4cnc(C)c(-c5ccc(F)cc5C)c4O)cc3F)ccnc2cc1C [Compound 460, N-[3-fluoro-4-[(6-methoxy-7-methyl-1,5-naphthyridin-4-yl)oxy]phenyl]-5-(4-fluoro-2-methylphenyl)-4-hydroxy-6-methylpyridine-3-carboxamide]
< 100 nM	> 300 nM	< 100 nM	< 100 nM			COc1cnc2c(Oc3ccc(NC(=O)c4c(C)n(C)c(C)c(-c5ccc(F)cc5)c4=O)cc3F)ccnc2c1 [Compound 508, N-[3-fluoro-4-[(7-methoxy-1,5-naphthyridin-4-yl)oxy]phenyl]-5-(4-fluorophenyl)-1,2,6-trimethyl-4-oxopyridine-3-carboxamide]
	< 100 nM	< 100 nM		< 100 nM	< 100 nM	COc1cc2nccc(Oc3ccc(NC(=O)c4c(C)nc(C)c(-c5ccc(F)cc5)c4O)cc3F)c2nc1OC [Compound 154, N-[4-[(6,7-Dimethoxy-1,5-naphthyridin-4-yl)oxy]-3-fluorophenyl]-5-(4-fluorophenyl)-4-hydroxy-2,6-dimethylpyridine-3-carboxamide]
100 to 300 nM	< 100 nM	< 100 nM	100 to 300 nM			COc1ccc2nccc(Oc3ccc(NC(=O)c4c(C)ncc(-c5ccc(F)cc5C)c4O)cc3F)c2n1 [Compound 480, N-[3-fluoro-4-[(6-methoxy-1,5-naphthyridin-4-yl)oxy]phenyl]-5-(4-fluoro-2-methylphenyl)-4-hydroxy-2-methylpyridine-3-carboxamide]
< 100 nM	< 100 nM	< 100 nM	< 100 nM			COc1cc2nccc(Oc3cc(F)c(NC(=O)c4cnc(C)c(-c5ccc(F)cc5)c4O)cc3F)c2nc1C [Compound 542, N-[2,5-difluoro-4-[(7-methoxy-6-methyl-1,5-naphthyridin-4-yl)oxy]phenyl]-5-(4-fluorophenyl)-4-hydroxy-6-methylpyridine-3-carboxamide]
< 100 nM	< 100 nM	< 100 nM	< 100 nM			COc1cc2nccc(Oc3ccc(NC(=O)c4nn(C)c(C)c(-c5ccc(F)cc5C)c4=O)cc3F)c2nc1OC [Compound 512, N-[4-[(6,7-dimethoxy-1,5-naphthyridin-4-yl)oxy]-3-fluorophenyl]-5-(4-fluoro-2-methylphenyl)-1,6-dimethyl-4-oxopyridazine-3-carboxamide]
< 100 nM	< 100 nM	< 100 nM	< 100 nM			COc1cc2nccc(Oc3ccc(NC(=O)c4nn(C)c(C)c(-c5ccc(F)cc5C)c4=O)cc3)c2nc1OC [Compound 517, N-[4-[(6,7-dimethoxy-1,5-naphthyridin-4-yl)oxy]phenyl]-5-(4-fluoro-2-methylphenyl)-1,6-dimethyl-4-oxopyridazine-3-carboxamide]
< 100 nM	< 100 nM	< 100 nM	< 100 nM			COCCOc1cnc2c(Oc3ccc(NC(=O)c4c(C)nc(C)c(-c5ccc(F)cc5)c4O)cc3F)ccnc2c1 [Compound 555, N-[3-Fluoro-4-[[7-(2-methoxyethoxy)-1,5-naphthyridin-4-yl]oxy]phenyl]-5-(4-fluorophenyl)-4-hydroxy-2,6-dimethylpyridine-3-carboxamide]

Further lines, the compound ahead of its results:

SMILES	IC50 ([1]; protocol of Example C-2)	IC50 [2]	IC50 [3]	IC50 ([4]; protocol of Example D-2)	IC50 [1, 5]	IC50 [4, 6]
COc1cc2c(Oc3ccc(NC(=O)c4ccc(C)n(-c5ccc(F)cc5)c4=O)cc3F)ccnc2cn1 [Compound 494, N-[3-fluoro-4-[(6-methoxy-1,7-naphthyridin-4-yl)oxy]phenyl]-1-(4-fluorophenyl)-6-methyl-2-oxopyridine-3-carboxamide]	< 100 nM	< 100 nM	< 100 nM	< 100 nM		
COCc1nc(C)c(-c2ccc(F)cc2)c(O)c1C(=O)Nc1ccc(Oc2ccnc3ccc(OC)nc23)cc1 [Compound 510, 5-(4-fluorophenyl)-4-hydroxy-2-(methoxymethyl)-N-[4-[(6-methoxy-1,5-naphthyridin-4-yl)oxy]phenyl]-6-methylpyridine-3-carboxamide]	< 100 nM	< 100 nM	< 100 nM	< 100 nM		
COc1cnc2c(Oc3ccc(NC(=O)c4nn(C)c(C)c(-c5ccc(F)cc5C)c4=O)cc3)ccnc2c1 [Compound 514, 5-(4-fluoro-2-methylphenyl)-N-[4-[(7-methoxy-1,5-naphthyridin-4-yl)oxy]phenyl]-1,6-dimethyl-4-oxopyridazine-3-carboxamide]	< 100 nM	< 100 nM	< 100 nM	< 100 nM		
CCn1cc(C(=O)Nc2ccc(Oc3ccnc4cc(OC)cnc34)c(F)c2)c(=O)c(-c2ccc(F)cc2)c1CF [Compound 559, 1-Ethyl-N-[3-fluoro-4-[(7-methoxy-1,5-naphthyridin-4-yl)oxy]phenyl]-6-(fluoromethyl)-5-(4-fluorophenyl)-4-oxopyridine-3-carboxamide]	< 100 nM	> 300 nM	< 100 nM	< 100 nM		
C=C(C)c1cnc2c(Oc3ccc(NC(=O)c4c(C)cc(C)n(-c5ccc(F)cc5)c4=O)cc3F)ccnc2c1 [Compound 457, 1-(4-fluorophenyl)-N-[3-fluoro-4-[(7-prop-1-en-2-yl-1,5-naphthyridin-4-yl)oxy]phenyl]-4,6-dimethyl-2-oxopyridine-3-carboxamide]	< 100 nM	< 100 nM	< 100 nM	< 100 nM		
CNc1nccc2c(Oc3ccc(NC(=O)c4cnc(C)n(-c5ccc(F)cc5)c4=O)cc3)ccnc12 [Compound 543, 1-(4-fluorophenyl)-2-methyl-N-[4-[[8-(methylamino)-1,7-naphthyridin-4-yl)oxy]phenyl]-6-oxopyrimidine-5-carboxamide]	< 100 nM	100 to 300 nM	< 100 nM	100 to 300 nM		
COc1cnc2c(Oc3ccc(NC(=O)c4nnc(C)c(-c5ccc(F)cc5)c4OC)cc3)ccnc2c1 [Compound 515, 5-(4-fluorophenyl)-4-methoxy-N-[4-[(7-methoxy-1,5-naphthyridin-4-yl)oxy]phenyl]-6-methylpyridazine-3-carboxamide]	< 100 nM	< 100 nM	< 100 nM	< 100 nM		
COc1cnc2c(Oc3ccc(NC(=O)c4cn(C)c(C)c(-c5ccc(F)cc5C)c4=O)cc3)ccnc2c1 [Compound 187, 5-(4-Fluoro-2-methylphenyl)-N-[4-[(7-methoxy-1,5-naphthyridin-4-yl)oxy]phenyl]-1,6-dimethyl-4-oxopyridine-3-carboxamide]		> 300 nM	< 100 nM		< 100 nM	< 100 nM
COc1cc2nccc(Oc3ccc(NC(=O)c4cc(C)nn(-c5ccc(F)cc5)c4=O)cc3)c2nc1OC [Compound 520, N-[4-[(6,7-dimethoxy-1,5-naphthyridin-4-yl)oxy]phenyl]-2-(4-fluorophenyl)-6-methyl-3-oxopyridazine-4-carboxamide]	< 100 nM	< 100 nM	< 100 nM	< 100 nM		
CCn1cc(C(=O)Nc2ccc(Oc3ccnc4cc(OC)c(OC)nc34)cc2)c(=O)c(-c2ccc(F)cc2)c1CF [Compound 558, N-[4-[(6,7-Dimethoxy-1,5-naphthyridin-4-yl)oxy]phenyl]-1-ethyl-6-(fluoromethyl)-5-(4-fluorophenyl)-4-oxopyridine-3-carboxamide]	< 100 nM	100 to 300 nM	< 100 nM	100 to 300 nM		
